Among the data in ChEMBL document CHEMBL1201862, “PubChem BioAssay data set” (2004) are IC50, EC50 and AC50 values, retold here.

Test [1] addresses T1, Corticotropin-releasing factor receptor 2/Corticotropin-releasing factor-binding protein (Homo sapiens, UniProt P24387+Q13324).
T1 sequence (Q13324 whole entry): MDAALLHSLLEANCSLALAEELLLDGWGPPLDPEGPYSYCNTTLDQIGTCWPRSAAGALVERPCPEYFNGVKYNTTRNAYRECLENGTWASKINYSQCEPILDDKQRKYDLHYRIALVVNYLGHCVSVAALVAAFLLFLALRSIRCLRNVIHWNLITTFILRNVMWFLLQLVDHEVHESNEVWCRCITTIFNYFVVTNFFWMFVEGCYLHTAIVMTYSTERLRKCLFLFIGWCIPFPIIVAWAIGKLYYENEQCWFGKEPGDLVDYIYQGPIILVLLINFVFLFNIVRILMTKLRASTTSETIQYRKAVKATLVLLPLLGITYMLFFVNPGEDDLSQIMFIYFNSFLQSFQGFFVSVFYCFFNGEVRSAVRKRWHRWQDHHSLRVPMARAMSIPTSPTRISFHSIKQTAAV
T1 sequence (P24387 whole entry): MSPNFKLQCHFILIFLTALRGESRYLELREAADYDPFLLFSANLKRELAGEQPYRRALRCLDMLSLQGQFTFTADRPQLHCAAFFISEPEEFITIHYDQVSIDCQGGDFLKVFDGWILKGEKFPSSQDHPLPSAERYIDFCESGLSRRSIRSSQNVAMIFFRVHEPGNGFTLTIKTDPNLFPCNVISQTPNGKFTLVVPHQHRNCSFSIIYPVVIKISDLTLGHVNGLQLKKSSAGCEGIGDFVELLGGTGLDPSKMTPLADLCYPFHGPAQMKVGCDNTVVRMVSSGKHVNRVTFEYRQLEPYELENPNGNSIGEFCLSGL
In words: Dose Response confirmation of uHTS hits for small molecule antagonists of the CRF-binding protein and CRF-R2 receptor complex. The following applies: read-out: IC50_Mean. The class given is functional.

The target of test [2] is T1, Corticotropin-releasing factor receptor 2/Corticotropin-releasing factor-binding protein. Briefly: activators of CRF receptor 2 with binding protein – uHTS hits, confirmation (AID 602473). The class given is functional. The following applies: read-out: EC50_Mean.
The nature of test [3]: inhibitors of intracellular T. cruzi replication, confirmation, NIH3T3 host cells, beta-gal luminescence (AID 2044).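 Also: intracellular parasites grown in NIH/3T3 mouse fibroblasts as host cells; luminescent beta-galactosidase reporter signal from transgenic T. cruzi replicating inside host cells; inhibitors lower the luminescence signal.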 The class given is functional, cell-based.
The nature of test [4]: cytotoxicity toward NIH3T3 fibroblasts, dose response, counter-screen, cell-based, ATP luminescence, mouse fibroblasts (AID 2010).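 Also: cells exposed to compound for about 90 hours before reading.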 It counts as functional.
The nature of test [5]: Shn3 3'UTR reporter inhibitors, dose response, cell-based, Clone20 osteoblasts, firefly luciferase, cherry-picked (AID 624132).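 Also: firefly luciferase luminescence from reporter carrying the Shn3 3'UTR in osteoblasts.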 The class given is functional.
Test [6] in a line: control 3'UTR Renilla luciferase suppression, dose response, counter-screen for Shn3 inhibitor project, cell-based, Clone20-Shn3RL, cherry-picked (AID 624133). It counts as functional. Background: A counterscreen serves to expose hits that act by an unwanted route or on another target.
Test [7] concerns the target FAD-linked sulfhydryl oxidase ALR (Homo sapiens, UniProt P55789). In words: inhibitors of human ALR sulfhydryl oxidase, dose response, biochemical, H2O2 detection, luminescence, cherry-pick (AID 493248).
A further test addresses Large T antigen (Simian virus 40, UniProt P03070). The class given is functional, Betapolyomavirus macacae.
For test [8], the target named is T2, Rac GTPase-activating protein 1 (Homo sapiens, UniProt Q9H0H5).
T2 sequence (Q9H0H5 whole entry): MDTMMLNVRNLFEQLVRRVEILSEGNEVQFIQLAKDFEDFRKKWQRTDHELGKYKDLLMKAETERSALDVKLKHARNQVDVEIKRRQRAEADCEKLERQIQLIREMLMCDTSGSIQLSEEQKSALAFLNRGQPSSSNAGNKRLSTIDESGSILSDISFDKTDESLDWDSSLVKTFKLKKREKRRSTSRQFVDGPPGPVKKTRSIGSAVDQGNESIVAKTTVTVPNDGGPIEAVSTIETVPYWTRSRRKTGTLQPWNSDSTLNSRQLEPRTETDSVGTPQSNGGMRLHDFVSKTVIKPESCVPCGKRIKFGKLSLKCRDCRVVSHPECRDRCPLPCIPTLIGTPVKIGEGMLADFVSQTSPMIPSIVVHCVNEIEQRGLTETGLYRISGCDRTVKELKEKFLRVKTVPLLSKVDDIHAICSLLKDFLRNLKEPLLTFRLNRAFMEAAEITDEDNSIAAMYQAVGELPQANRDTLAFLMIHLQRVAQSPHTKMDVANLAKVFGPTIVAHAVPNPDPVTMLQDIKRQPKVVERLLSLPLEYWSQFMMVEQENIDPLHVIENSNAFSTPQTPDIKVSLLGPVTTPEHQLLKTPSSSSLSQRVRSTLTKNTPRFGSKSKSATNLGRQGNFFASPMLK
Briefly: MgcRacGAP GTPase-activating activity inhibitors, confirmation, biochemical, ADP Hunter fluorescence, primary and confirmatory (AID 624330). It counts as functional.

Test [9] can be described thus: inhibitors of firefly luciferase expression or activity, dose response, H4 neuroglioma cells, luminescence (AID 1990). The class given is functional, cell-based.
Test [10] can be described thus: Luminescence Cell-Based Dose Response HTS to Identify Inhibitors of 5'UTR Stem-Loop Driven Prion Protein mRNA Translation in H4 Neuroglioblastoma Cells. [Related pubchem assays: 1827 (Project Summary), 1813 (Primary HTS)]. It counts as functional.
A short description of test [11]: inhibitors of SNCA 5'UTR-driven reporter translation, confirmation, H4 neuroglioma cells, luminescence (AID 1988). It counts as functional, cell-based.
A short description of test [12]: Luminescence Cell-Based Dose Retest to Confirm Inhibitors of Cancer Stem Cells. [Related pubchem assays (depositor defined):AID2717, AID2721]. The class given is functional. The following applies: Homo sapiens.

Activity calls are given as the source filed them.

Sequence of Large T antigen (P03070 whole entry): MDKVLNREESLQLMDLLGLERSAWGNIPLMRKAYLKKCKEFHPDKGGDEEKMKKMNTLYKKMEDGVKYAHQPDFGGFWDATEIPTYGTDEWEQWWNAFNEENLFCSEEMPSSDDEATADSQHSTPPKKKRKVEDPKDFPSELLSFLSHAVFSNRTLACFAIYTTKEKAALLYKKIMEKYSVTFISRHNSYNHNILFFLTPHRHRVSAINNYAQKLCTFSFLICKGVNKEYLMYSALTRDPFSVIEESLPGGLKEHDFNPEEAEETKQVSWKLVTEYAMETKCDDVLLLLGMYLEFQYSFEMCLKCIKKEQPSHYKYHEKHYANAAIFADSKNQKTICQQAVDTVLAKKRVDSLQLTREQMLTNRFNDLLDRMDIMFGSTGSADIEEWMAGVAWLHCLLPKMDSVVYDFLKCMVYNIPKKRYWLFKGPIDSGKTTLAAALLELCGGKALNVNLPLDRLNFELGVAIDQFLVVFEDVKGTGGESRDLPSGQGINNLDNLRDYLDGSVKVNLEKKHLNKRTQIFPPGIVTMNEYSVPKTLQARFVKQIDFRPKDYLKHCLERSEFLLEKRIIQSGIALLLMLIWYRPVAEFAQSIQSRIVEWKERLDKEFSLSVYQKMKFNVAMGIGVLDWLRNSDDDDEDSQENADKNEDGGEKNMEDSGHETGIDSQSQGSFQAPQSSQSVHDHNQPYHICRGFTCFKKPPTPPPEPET
Sequence of FAD-linked sulfhydryl oxidase ALR (P55789 whole entry): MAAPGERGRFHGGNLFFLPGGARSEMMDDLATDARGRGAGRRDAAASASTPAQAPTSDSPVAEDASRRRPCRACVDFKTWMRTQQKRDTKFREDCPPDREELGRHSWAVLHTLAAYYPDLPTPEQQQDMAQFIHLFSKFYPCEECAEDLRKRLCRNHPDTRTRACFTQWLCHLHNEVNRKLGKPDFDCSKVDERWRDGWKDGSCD

Turning to `O=C(O)C1CC(=O)N(CCOc2ccccc2)C1` (stereo unspecified), the IC50 in test [1] is > 47.1 µM (inactive). In test [2], the EC50 is > 53 µM (inactive). With `COc1ccc2c(c1)c(CC(=O)Nc1cc(C)ccc1C)c(C)n2C(=O)c1ccc(Cl)cc1`, the EC50 in test [3] is 0.938 µM (active); in [4] it was > 60 µM (not active); in test [2] it was > 53 µM (inactive). For the same compound, the results for the AC50 in test [5] and in test [6] were 5.69 µM (active) and 13.1 µM (active), respectively.

On to `CN1Cc2cc(C(=O)c3ccccc3O)cnc2NC1=O`, for which the half-maximal activity concentration (AC50) (usually the midpoint of the concentration-response curve, whichever way the signal moves) in [7] is 6.59 µM (active). Consider `CN1C=CC=C/C1=C(\C#N)c1nc2ccccc2[nH]1`, for which the IC50 at Large T antigen is 7.7 µM (active); in [8], 46.4 µM (active). For `COc1cc(C(=O)OCC(=O)NC2CCCCCC2)ccc1OCC(C)C`, in test [6], the AC50 is 35.9 µM (active).

On to `Cc1[nH]n(C(N)=S)c(=O)c1/N=N/c1ccc(Cl)cc1Cl`, for which the AC50 in test [7] is 0.674 µM (active). For the compound `COc1ccc2nc(S)[nH]c2c1`, the AC50 in test [7] was 0.581 µM (active). With `COc1cc(/C=N/NC(=O)c2c(-c3ccccc3)noc2C)ccc1O`, the IC50 is 15 µM (active) on Large T antigen and 50.2 µM (active) in test [8]. `CN(C)/C=N/C1=NN(c2cccc(C(F)(F)F)c2)CC1`: the IC50 on Large T antigen was 13 µM (active); in [8], 38.3 µM (active). Besides, the half-maximal activity concentration (AC50) in test [7] is 1.5 µM (active). Turning to `COc1ccc(C(=O)/C=C(\C)Nc2ccc(NC(C)=O)cc2)cc1`, the IC50 on Large T antigen was 53.3 µM (active). Consider `COc1ccc(N2CCC(CN=C(S)Nc3c(C)cc(C)cc3C)C2)cc1` (stereo unspecified), for which the IC50 at Large T antigen is 19.1 µM (active). On to `COC(=O)c1c(NC(=O)COc2ccc(Cl)cc2Cl)sc2c1CC(C)(C)NC2(C)C`, for which the EC50 was 8.93 µM (active) in test [9], > 120 µM (not active) in test [10] and 9.53 µM (active) in test [11]. The AC50 in test [12] is 5.58 µM (active). For `O=C(/C=C/c1ccc(O)c(O)c1)O[C@@H]1C[C@](O)(C(=O)O)C[C@@H](O)[C@H]1O`, at Large T antigen, the IC50 was 2.86 µM (active). Consider `CCN(CC)c1ccc(NC(=O)C2=CC=CN3CCS(=O)(=O)N=C23)cc1`, for which the AC50 in test [7] was 0.295 µM (active). Also, in [8], the IC50 is 67 µM (active). In the case of `CC(NC(=O)C(=O)N1CCCCC1)C(c1cccs1)N1CCN(c2ccc(F)cc2)CC1` (stereo unspecified), in [7], the concentration at half-maximal activity (AC50) is 1.44 µM (active). With `O=C(Nc1cc(F)ccc1F)N1CCN(c2ccnc3cc(Cl)ccc23)CC1`, the half-maximal activity concentration (AC50) in test [5] is 22.8 µM (active); in test [6], 10.2 µM (active). With `CCN(CC)c1ccc(/C=N/O)cc1`, the IC50 was 6.52 µM (active) at Large T antigen and 20.2 µM (active) in [8].

Take `CN1CCN(/N=C/c2ccc(N(C)c3ccccc3)cc2)CC1`: in [7], the concentration at half-maximal activity (AC50) was 1.9 µM (active). On to `Cc1[nH]c2ccc(C(=O)N3CCCCC3)cc2c1C`, for which the half-maximal activity concentration (AC50) in [7] was 2.77 µM (active). The same measure, in the same setting: then `Cc1c(Br)c(O)c(Br)c(O)c1/C=N/n1c(S)nnc1-c1ccccc1`, with 4.15 µM (active); and `CC(=O)N1CCC(=NNC(=O)c2cccs2)CC1`, with 13.5 µM (active).

Turning to `COc1cc2c(cc1OC)C(c1ccc(Br)cc1)NCC2` (stereo unspecified), the EC50 in [9] is > 120 µM (not active); in [10], > 120 µM (not active); in test [11], > 120 µM (not active); in test [3], > 60 µM (not active); in test [4], > 60 µM (not active).

With `Sc1nccc(-c2cccs2)n1`, in [7], the concentration at half-maximal activity (AC50) is 0.664 µM (active). The same measure, in the same setting: the figure for `Cc1cccc(C(=O)Nc2nnc(S(=O)(=O)N(C)Cc3ccco3)s2)c1` is 9.45 µM (active). `CCN(Cc1ccncc1)C(=O)c1cc(Br)cc(Br)c1O`: the AC50 in test [7] was 1.25 µM (active). `CCN(CC)c1ccc(NC(=O)C2CC(=O)N(Cc3ccccc3)C2)cc1` (stereo unspecified): the IC50 at Large T antigen was 14.5 µM (active). For the compound `Nc1ccc2nc(NC(=O)C3CCCCC3)sc2c1`, the AC50 in test [7] is 0.957 µM (active).
